Experimental data published in PubChem BioAssay (NCI).
Converted amounts (≈) assume the structure as drawn.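 Test compounds were applied to cells in 96-well plates for 48 hours at 5 doses. GI50 is the concentration that inhibits growth by half. The concentration for full growth arrest is given as TGI.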 The source made the active and inactive calls. No stated cut-off is given here; in the data, active means GI50 below about 0.43 µM; inactive means the rest.

test system: HOP-18 NSCLC; test: NCI tumour cell line growth inhibition, 48 h

| Compound | TGI [µM] | GI50 [µM] | outcome |
| --- | --- | --- | --- |
| N=C(N)SCc1cn2ccccc2n1 | > 100 | – | – |
| O=C(C(=O)c1ccc(Cc2ccc(C(=O)C(=O)c3ccccc3)cc2)cc1)c1ccccc1 | > 100 | – | – |
| Cc1cc(O)c2c(c1)C(O)(c1ccc3c(c1O)C(=O)c1c(O)cc(C)cc1C3(O)C1OC(CO)C(O)C(O)C1O)c1cccc(O)c1C2=O (stereo not drawn) | 8.38 | – | – |
| Cc1cc(Cl)ccc1NC(=O)C(=O)Cc1nc2ccc(C(=O)c3ccccc3)cc2[nH]c1=O | > 100 | – | – |
| CC12CC3(C)CC(C)(C1)CC(N=[N+]=[N-])(C2)C3 | > 100 | – | – |
| COc1cc2nncc(Sc3cnnc4ccccc34)c2cc1OC | 37.8 | – | – |
| CSc1nc2c(c(O)c(C)c(=O)n2C2OC(COC(C)=O)C(OC(C)=O)C(OC(C)=O)C2OC(C)=O)c(=O)n1C (stereo not drawn) | > 100 | – | – |
| COC(=O)c1ccc2c(c1)C(NC(C)=O)CCc1cc(OC)c(OC)c(OC)c1-2 (stereo not drawn) | > 100 | – | – |
| COc1cc(C2c3cc4c(cc3[C@@H](Nc3ccc(N(C)C)cc3)[C@H]3COC(=O)C23)OCO4)cc(OC)c1O (stereo partly drawn) | 17 | – | – |
| CC[O-].CC[O-].O=C1C(=C([O-])c2ccccc2)C(=O)c2ccccc21.O=C1C(=C([O-])c2ccccc2)C(=O)c2ccccc21.[Ti+4] | > 100 | > 100 | – |
| CC1(C)C(=O)C(O)=CC2C1=CCC1C2(C)C(=O)CC2(C)C(C(C)(O)C(=O)CC(O)C(C)(C)O)C(O)CC12C (stereo not drawn) | 12.3 | – | – |
| COC(=O)C1=CCON(c2ccccc2)C1c1ccccc1 (stereo not drawn) | > 100 | – | – |
| CC(C)N(C(C)C)[PH+]1O[PH+](N(C(C)C)C(C)C)O[PH+](N(C(C)C)C(C)C)O[PH+](N(C(C)C)C(C)C)O[PH+](N(C(C)C)C(C)C)O1.[C-]#[O+].[C-]#[O+].[C-]#[O+].[C-]#[O+].[C-]#[O+].[C-]#[O+].[C-]#[O+].[Cr].[Cr] (stereo not drawn) | > 100 | > 100 | – |
| Cc1c(C)c2cc3c(=O)ccoc3c(C)c2oc1=O | > 100 | – | – |
| O=C(CCc1nc(=S)[nH][nH]1)NC12CC3CC(CC(C3)C1)C2 | > 100 | – | – |
| COC1/C=C/OC2(C)Oc3c(C)c(O)c4c(c3C2=O)C(=O)C=C(NC(=O)/C(C)=C\C=C\C(C)C(OC=O)C(C)C(O)C(C)C(OC(C)=O)C1C)C4=O (stereo not drawn) | 15.8 | – | – |
| COc1ccc(C2C(Cl)C(=O)N2n2cnc3ccccc3c2=O)cc1OC (stereo not drawn) | > 100 | – | – |
| Clc1ccc([O][In]([O]c2ccc(Cl)cn2)[O]c2ccc(Cl)cn2)nc1 | > 100 | > 100 | – |
| CSc1ccc(/C=C2\CNC/C(=C\c3ccc(SC)cc3)C2=O)cc1 | > 371 | 111 | inactive |
| COC(=O)c1nc(NN)[nH]c(=O)c1CCCCCc1c(C(=O)OC)[nH]c(NN)cc1=O | > 100 | – | – |
| C=C(C)C1CC2C(C)=C(OC(C)=O)C1n1c(=O)c3cc4ccccc4cc3c(=O)n12 (stereo not drawn) | > 100 | – | – |
| O=C1c2ccccc2N2OC3(N4CCCC4)CCCC3C12c1ccccc1 (stereo not drawn) | > 100 | – | – |

test system: P388 leukemia; test: NCI tumour cell line growth inhibition, 48 h

| Compound | GI50 [µg/mL] | TGI [µg/mL] |
| --- | --- | --- |
| CSc1ccc(/C=C2\CNC/C(=C\c3ccc(SC)cc3)C2=O)cc1 | 150 (≈ 408 µM) | 150 (≈ 408 µM) |

test system: P388/ADR leukemia; test: NCI tumour cell line growth inhibition, 48 h

| Compound | GI50 [µg/mL] | TGI [µg/mL] |
| --- | --- | --- |
| CSc1ccc(/C=C2\CNC/C(=C\c3ccc(SC)cc3)C2=O)cc1 | 150 (≈ 408 µM) | 150 (≈ 408 µM) |

test system: SN12K1 renal; test: NCI tumour cell line growth inhibition, 48 h

| Compound | GI50 [µg/mL] | TGI [µg/mL] |
| --- | --- | --- |
| CSc1ccc(/C=C2\CNC/C(=C\c3ccc(SC)cc3)C2=O)cc1 | 15.5 (≈ 42.1 µM) | 103 (≈ 280 µM) |
